Test results: patent EP0356894A1, “A novel glycopeptide antibiotic Decaplanin, a process for its production and its use as medicament” (priority 1988, dated 1990)

How the values were obtained:
[1] = acute toxicity, subcutaneous injection; assay type: in vivo; conditions: 1000 mg/kg and 2000 mg/kg, injected subcutaneously, Swiss mice
Text: The acute toxicity of the compound in laboratory animals has been evaluated.

[2] = test system: Staphylococcus aureus E 710 (Methicillin resistant); test: in vivo antibacterial protection study in experimentally infected mice; conditions: laboratory mice experimentally infected with Staphylococcus aureus E 710 (Methicillin resistant)
Text: "In vivo" antibacterial protection studies

[3] = acute toxicity, intravenous injection, rats; assay type: in vivo; conditions: Wistar rats
[4] = acute toxicity, intravenous injection, mice; assay type: in vivo; conditions: Swiss white mice
Gram-positive bacteria = test: minimum inhibitory concentration (MIC) determination; assay type: cell-based; conditions: wide range of Gram-positive bacteria including enterococci and resistant clinical isolates; MIC values are in Table II (image)
[5] = i.v., end of the 14 day follow-up period

Compound | finding at the site of injection [1] | acute toxicity [1] | activity in the in vivo system [2] | macroscopic examination on dissection [3, 5] | LD₅₀ ([3]; intravenous injection (i.v.)) | macroscopic examination on dissection [4, 5] | LD₅₀ ([4]; intravenous injection (i.v.), 20160 min) | activity against Gram-positive bacteria (Gram-positive bacteria)
CN[C@H](CC(C)C)C(=O)N[C@H]1C(=O)N[C@@H](CC(N)=O)C(=O)N[C@H]2C(=O)N[C@H]3C(=O)N[C@H](C(=O)N[C@H](C(=O)O)c4cc(O)cc(O)c4-c4cc3ccc4O)[C@H](O)c3ccc(c(Cl)c3)Oc3cc2cc(c3O[C@@H]2O[C@H](CO)[C@@H](O)[C@H](O)[C@H]2O[C@H]2C[C@](C)(N)[C@H](O)[C@H](C)O2)Oc2ccc(cc2Cl)[C@H]1O [vancomycin, reference compound] | tissue necrosis was seen at the site of injection | – | – | – | – | – | – | –
Decaplanin | no abnormalities were observed | no acute toxicity was observed | good activity | no morphological changes | greater than 2,500 mg/kg | no morphological changes | greater than 3000 mg/kg | displays activity
